From ChEMBL document CHEMBL4616616, “Identification of a C3'-nitrile nucleoside analogue inhibitor of pancreatic cancer cell line growth” (Bioorg Med Chem Lett, 2020) come the findings set out here.

Structures are written as SMILES. The source made the active and inactive calls. The rule behind the calls is not given here.

Assay [1] concerns BXPC-3. In words: Antiproliferative activity against human BxPC3 cells harboring wild type KRAS and TP53 mutation assessed as cell killing incubated for 96 hrs by cell-titer-Glo 2.0 assay relative to control. It counts as functional.
Assay [2] concerns BXPC-3. Put plainly: Antiproliferative activity against human BxPC3 cells harboring wild type KRAS and TP53 mutation assessed as inhibition of cell growth incubated for 96 hrs by cell-titer-Glo 2.0 assay. As to conditions: BXPC-3, 96 h. In kind it is functional, cell-based.
Assay [3] has as its system Capan-2. Put plainly: Antiproliferative activity against human Capan2 cells harboring TP53 and G12V KRAS mutations assessed as inhibition of cell growth incubated for 96 hrs by cell-titer-Glo assay. As to conditions: Capan-2, 96 h.
The test system of assay [4] is Capan-2. Put plainly: Antiproliferative activity against human Capan2 cells harboring TP53 and G12V KRAS mutations assessed as cell killing incubated for 96 hrs by cell-titer-Glo 2.0 assay relative to control.
For assay [5], the system named is BXPC-3. Put plainly: Antiproliferative activity against human BxPC3 cells harboring wild type KRAS and TP53 mutation assessed as maximal inhibition of cell growth at 2.5 uM incubated for 96 hrs by cell-titer-Glo assay. In kind it is functional, cell-based.
Assay [6] relates to Capan-2. Put plainly: Antiproliferative activity against human Capan2 cells harboring TP53 and G12V KRAS mutations assessed as inhibition of cell growth incubated for 96 hrs by cell-titer-Glo 2.0 assay relative to control.
The subject of assay [7] is BXPC-3. In words: Antiproliferative activity against human BxPC3 cells harboring wild type KRAS and TP53 mutation assessed as inhibition of cell growth at 25 uM incubated for 96 hrs by cell-titer-Glo 2.0 assay. In kind it is functional, cell-based.
For assay [8], the system named is Capan-2. In words: Antiproliferative activity against human Capan2 cells harboring TP53 and G12V KRAS mutations assessed as inhibition of cell growth at 25 uM incubated for 96 hrs by cell-titer-Glo 2.0 assay.

Take `C[C@]1(CC#N)[C@H](F)[C@H](n2cnc3c(NCc4ccccc4)nc(Cl)nc32)O[C@@H]1CO`: the Activity in assay [1] came to 20%.

What is called EC50 is the concentration giving half of the maximal effect. For the compound `CC(C)OC(=O)[C@H](C)N[P@](=O)(OC[C@H]1O[C@@H](n2cnc3c(NCc4ccccc4)nc(Cl)nc32)[C@@H](F)[C@]1(C)CC#N)Oc1ccccc1`, the Activity in assay [1] is on record as 60%; in assay [4] it was 80%. The EC50 is 12 µM in assay [2] and 7 µM in assay [3].

Regarding `Nc1ccn([C@@H]2O[C@H](CO)[C@@H](O)C2(F)F)c(=O)n1` [GEMCITABINE], the inhibition entry in assay [5] was “Active”. Also, the Imax in assay [6] is listed as 40%.

Turning to `C[C@]1(CC#N)[C@H](F)[C@H](n2cnc3c(N)nc(Cl)nc32)O[C@@H]1CO`, the inhibition entry in assay [7] and in assay [8] was “inactive” throughout.
